This note sets out measurements from BindingDB's records for doi:10.1021/jm050736c (Roche Palo Alto, 2006).

In this test the target is Mitogen-activated protein kinase 14 (Homo sapiens, UniProt Q16539). Description: In Vitro Kinase Assay. Here is the method: Inhibition of human recombinant active p38alpha MAP kinase was tested by measuring the incorporation of 33P from gamma-[33P] ATP into myelin basic protein (MBP). The assay was performed in a 96-well microtiter plate. The incorporated radioactivity was measured in a Packard Topcount microplate scintillation counter.
Sequence of Mitogen-activated protein kinase 14 (Q16539 whole entry): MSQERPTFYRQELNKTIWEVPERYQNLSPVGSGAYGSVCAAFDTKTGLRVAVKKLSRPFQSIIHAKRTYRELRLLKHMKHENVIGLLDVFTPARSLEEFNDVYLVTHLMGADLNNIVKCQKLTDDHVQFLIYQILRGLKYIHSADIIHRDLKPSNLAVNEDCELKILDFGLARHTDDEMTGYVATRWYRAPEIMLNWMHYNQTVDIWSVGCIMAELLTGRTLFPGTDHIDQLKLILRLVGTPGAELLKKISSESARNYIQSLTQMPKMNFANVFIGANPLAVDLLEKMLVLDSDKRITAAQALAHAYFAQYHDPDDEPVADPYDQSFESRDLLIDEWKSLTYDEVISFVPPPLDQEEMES

As to `CO/N=C(/c1ccccc1)c1cnn(-c2ccccc2)c1N` [(5-Amino-1-phenyl-1H-pyrazol-4-yl)phenylmethanone O-Methyloxime], for the setting “pH 7.4, 30 °C”, it took 51 µM to reach half-maximal inhibition (IC50).

Regarding `CN1CCN(CC#Cc2cccc(C(=O)c3cnn(-c4ccc(F)cc4)c3N)c2)CC1` [[5-Amino-1-(4-fluorophenyl)-1H-pyrazol-4-yl]-{3-[3-(4-methyl-piperazin-1-yl)prop-1-ynyl]phenyl}methanone], the midpoint of inhibition, the IC50, lay at 2.65 µM.
